According to ChEMBL document CHEMBL4052722, “Virtual screening, synthesis and biological evaluation of DNA intercalating antiviral agents” (Bioorg Med Chem Lett, 2017):

What was measured:
[1] = tested on: Vesicular stomatitis virus; assay: Antiviral activity against Vesicular stomatitis virus at 0.2 to 620 uM after 24 hrs post infection relative to control; format: functional
Bos taurus = species: Bos taurus; assay: Displacement of ethidium bromide from calf thymus DNA by fluorescence binding assay

Structure (SMILES) | Activity [1] [%] | log Ka (Bos taurus)
CCCCN(CC)CCn1c2ccccc2c2nc3ccccc3nc21 | 50 | 6.01
O=C(CCCN1C(=O)c2cccc3cccc(c23)C1=O)NCCN1CCOCC1 | 5 | 5.87
c1ccc2c(c1)ccc1c2c2nc3ccccc3nc2n1CCN1CCCCC1 | 20 | 6.61
O=C1c2cccc3cccc(c23)C(=O)N1CCNCCO |  | 5.57
CCN(CC)CCNC(=O)CCCCCN1C(=O)c2cccc3cccc(c23)C1=O |  | 5.49
CCN(CC)CCCNC(=O)CN1C(=O)c2cccc3cccc(c23)C1=O |  | 5.31
OCCNCCCn1c2ccccc2c2nc3ccccc3nc21 | 37 | 6.4
CC1CCN(CC(=O)N/N=C2/C(=O)Nc3ccc4ccccc4c32)CC1 | 40 | 7.11
CCN(CC)CCCCCCn1c2ccccc2c2nc3ccccc3nc21 | 75 | 5.65
O=C(CN1CCCCCC1)N/N=C1/C(=O)Nc2ccc3ccccc3c21 | 20 | 6.52
CCN(CC)CCN1C(=O)/C(=N/NC(=O)CCN2CCCCCC2)c2ccccc21 |  | 6.03
CCN(CC)CC(=O)N/N=C1\C(=O)Nc2ccccc21 | 80 | 5.96
O=C1c2cccc3cccc(c23)C(=O)N1CCCN1CCOCC1 |  | 6.93
c1ccc2nc3c(nc2c1)c1ccccc1n3CCNCCN1CCOCC1 | 40 | 6.17
CCCN(CCC)CCCCn1c2ccccc2c2nc3ccccc3nc21 | 13 | 5.49
CCN(CC)CCNC(=O)CN1C(=O)c2cccc3cccc(c23)C1=O |  | 5.54
c1ccc2nc3c(nc2c1)c1ccccc1n3CCCCCCN1CCOCC1 | 6 | 5.73
O=C(Cn1c2ccccc2c2nc3ccccc3nc21)OCCCN1CCOCC1 | 15 | 5.14
CCN(CC)CCNC(=O)c1cc2c(ccc3ccccc32)o1 |  | 5.77
O=C1c2cccc3cccc(c23)C(=O)N1NCCN1CCOCC1 |  | 5.38
CCN(CC)CCNC(=O)CCCN1C(=O)c2cccc3cccc(c23)C1=O | 20 | 6.13
c1ccc2nc3c(nc2c1)c1ccccc1n3CCCN1CCOCC1 | 25 | 6.09
O=C(Cn1c2ccccc2c2nc3ccccc3nc21)NCCCNCCO | 72 | 5.06
O=C(CCCCCN1C(=O)c2cccc3cccc(c23)C1=O)NCCN1CCOCC1 |  | 5.53
CCN(CC)CCOC(=O)CCCn1c2ccccc2c2nc3ccccc3nc21 | 0 | 5.45

Structure (SMILES) | Activity [1] [%] | log Ka (Bos taurus)
CCN(CC)CCN1C(=O)/C(=N\NC(=O)CN2CCCCC2)c2ccccc21 |  | 5.74
c1ccc2c(c1)c1nc3c(nc1n2CCN1CCOCC1)CCCC3 | 66 | 
O=C(CCCn1c2ccccc2c2nc3ccccc3nc21)OCCN1CCCCC1 | 25 | 5.57
CNCCCN1C(=O)c2cccc3cccc(c23)C1=O |  | 5.57
c1ccc2c(c1)c1nc3c(nc1n2CCN1CCCCC1)CCCC3 | 65 | 
CN1CCN(CCCn2c3ccccc3c3nc4ccccc4nc32)CC1 | 39 | 6.37
CCN(CC)CCNC(=O)CCN1C(=O)c2cccc3cccc(c23)C1=O | 20 | 5.85
O=C(CN1C(=O)c2cccc3cccc(c23)C1=O)NCCN1CCOCC1 |  | 5.68
CCN(CC)CCCOC(=O)CCCn1c2ccccc2c2nc3ccccc3nc21 | 0 | 5.29
CN(C)CCCCCCn1c2ccccc2c2nc3ccccc3nc21 | 82 | 5.81
CCN(CC)CCCNC(=O)CCN1C(=O)c2cccc3cccc(c23)C1=O | 10 | 5.79
CN(C)CCCNC(=O)CCN1C(=O)c2cccc3cccc(c23)C1=O |  | 5.92
O=C(CCN1CCCCC1)N/N=C1\C(=O)Nc2ccccc21 | 0 | 5.92
CCN(CC)CCN1C(=O)c2cccc3cccc(c23)C1=O |  | 6.98
CC1CCN(CCn2c3ccccc3c3nc4ccccc4nc32)CC1 | 90 | 5.98
CCN(CC)CCn1c2ccc3ccccc3c2c2nc3ccccc3nc21 | 14 | 6.79
OCCNCCn1c2ccccc2c2nc3ccccc3nc21 | 80 | 6.31
CN1CCN(CCn2c3ccccc3c3nc4c(nc32)CCCC4)CC1 | 100 | 
c1ccc2nc3c(nc2c1)c1ccccc1n3CCOCCN1CCCCC1 | 51 | 5.19
c1ccc2nc3c(nc2c1)c1ccccc1n3CCN1CCCCC1 | 90 | 6.01
CCN(CC)CCCNC(=O)CCCN1C(=O)c2cccc3cccc(c23)C1=O | 15 | 6.21
CC1CCCCN1CCn1c2ccccc2c2nc3ccccc3nc21 (stereo not given) | 90 | 5.19
CN(C)CCn1c2ccc3ccccc3c2c2nc3ccccc3nc21 | 21 | 6.94
CCCN(CCC)CCn1c2ccccc2c2nc3c(nc21)CCCC3 | 90 | 
O=C1c2cccc3cccc(c23)C(=O)N1CCN1CCCCC1 |  | 5.29

Structure (SMILES) | Activity [1] [%] | log Ka (Bos taurus)
O=C(CN1CCOCC1)N/N=C1\C(=O)Nc2ccccc21 |  | 5.28
O=C(CCN1C(=O)c2cccc3cccc(c23)C1=O)NCCCN1CCOCC1 | 30 | 5.72
O=C(CCCn1c2ccccc2c2nc3ccccc3nc21)NCCNCCO |  | 5.05
O=C(CCCCCN1C(=O)c2cccc3cccc(c23)C1=O)NCCCN1CCOCC1 | 50 | 6.03
CN(C)CCCNC(=O)c1cc2c(ccc3ccccc32)o1 |  | 5.48
CC1CCN(CCC(=O)N/N=C2\C(=O)Nc3ccccc32)CC1 | 80 | 5.91
CN(C)CCCn1c2ccccc2c2nc3ccccc3nc21 | 23 | 6.01
CCN(CC)CCCNC(=O)CCCCCN1C(=O)c2cccc3cccc(c23)C1=O | 50 | 6.81
c1ccc2nc3c(nc2c1)c1ccccc1n3CCN1CCCC1 | 85 | 6.05
CCN(CC)CCCCCn1c2ccccc2c2nc3ccccc3nc21 | 12 | 5.61
O=C(NCCCN1CCOCC1)c1cc2c(ccc3ccccc32)o1 |  | 5.64
O=C(NCCN1CCOCC1)c1cc2c(ccc3ccccc32)o1 |  | 4.58
CCN(CC)CCCNC(=O)c1cc2c(ccc3ccccc32)o1 |  | 6.12
CCN(CC)CCn1c2ccccc2c2nc3ccccc3nc21 | 90 | 6.07
CC1CCN(CCn2c3ccccc3c3nc4c(nc32)CCCC4)CC1 | 95 | 
CN(C)CCCNC(=O)CCCN1C(=O)c2cccc3cccc(c23)C1=O |  | 5.95
CCN(CC)CCOC(=O)Cn1c2ccccc2c2nc3ccccc3nc21 | 45 | 5.42
CC1CCN(CC(=O)N/N=C2\C(=O)Nc3ccccc32)CC1 | 60 | 5.4
CCCN(CCC)CCn1c2ccc3ccccc3c2c2nc3ccccc3nc21 | 16 | 6.91
c1ccc2nc3c(nc2c1)c1ccccc1n3CCCCCN1CCCCC1 | 89 | 5.68
O=C(CN1CCCCCC1)N/N=C1\C(=O)Nc2ccccc21 | 80 | 5.49
CCN(CC)CCN1C(=O)/C(=N\NC(=O)CN2CCC(C)CC2)c2ccccc21 | 100 | 6.47
c1ccc2nc3c(nc2c1)c1ccccc1n3CCOCCN1CCOCC1 | 50 | 5.32
CCN(CC)CCOCCn1c2ccccc2c2nc3ccccc3nc21 | 56 | 5.26
O=C(CN1C(=O)c2cccc3cccc(c23)C1=O)NCCCN1CCOCC1 |  | 5.46

Structure (SMILES) | Activity [1] [%] | log Ka (Bos taurus)
c1ccc2nc3c(nc2c1)c1ccccc1n3CCCCCCN1CCCCC1 |  | 5.95
CC1CCCCN1CCCCn1c2ccccc2c2nc3ccccc3nc21 (stereo not given) | 26 | 5.6
CN1CCN(CCCCCCn2c3ccccc3c3nc4ccccc4nc32)CC1 |  | 6.45
O=C(CN1CCCC1)N/N=C1\C(=O)Nc2ccccc21 |  | 5.58
CN(C)CCOC(=O)Cn1c2ccccc2c2nc3ccccc3nc21 | 0 | 5.46
CN(C)CCOCCn1c2ccccc2c2nc3ccccc3nc21 | 32 | 5.59
c1ccc2nc3c(nc2c1)c1ccccc1n3CCN1CCOCC1 | 85 | 5.89
CCN(CC)CCCn1c2ccccc2c2nc3ccccc3nc21 | 30 | 6.11
CC1CCCCN1CCCn1c2ccccc2c2nc3ccccc3nc21 (stereo not given) | 56 | 6.28
O=C(Cn1c2ccccc2c2nc3ccccc3nc21)NCCNCCO | 70 | 5.37
O=C(CN1CCCCC1)NN1C(=O)c2cccc3cccc(c23)C1=O |  | 6.2
CN1CCN(CC(=O)N/N=C2\C(=O)Nc3ccc4ccccc4c32)CC1 | 70 | 5.99
CN(C)CCn1c2ccccc2c2nc3c(nc21)CCCC3 | 88 | 
CCN(CC)CCCNC(=O)CCCn1c2ccccc2c2nc3ccccc3nc21 |  | 4.77
O=C(CN1CCOCC1)NN1C(=O)c2cccc3cccc(c23)C1=O |  | 5.34
CN(C)CCCNC(=O)CN1C(=O)c2cccc3cccc(c23)C1=O |  | 5.63
CCN(CC)CC(=O)NN1C(=O)c2cccc3cccc(c23)C1=O |  | 5.6
O=C(CCCn1c2ccccc2c2nc3ccccc3nc21)NCCCNCCO |  | 5.09
CCN(CC)CCN1C(=O)/C(=N\NC(=O)CN2CCCCCC2)c2ccccc21 |  | 6.32
CCN(CC)CCN1C(=O)/C(=N\NC(=O)CCN2CCOCC2)c2ccccc21 |  | 6.08
O=C(CCCn1c2ccccc2c2nc3ccccc3nc21)NCCN1CCNCC1 |  | 4.97
CN(C)CCCN1C(=O)c2cccc3cccc(c23)C1=O |  | 7.07
O=C(Cn1c2ccccc2c2nc3ccccc3nc21)NCCN1CCNCC1 |  | 5.72
CN1CCN(CCCCCn2c3ccccc3c3nc4ccccc4nc32)CC1 |  | 6.23
CCN(CC)CCCN1C(=O)c2cccc3cccc(c23)C1=O |  | 6.57
